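Five concentrations, 48 hours, 96-well plates. GI50 marks 50% less growth.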 Activity calls are given as the source filed them. No stated cut-off is given here; in the data, active = GI50 up to about 1.1 µM and inactive = higher.

Holding throughout (test): NCI-60 cell line screen, 48 h
In assay [1] the test system is NCI-H460.
Assay [2] deals with EKVX.
Assay [3] deals with SN12C.
The test system of assay [4] is NCI-H226.
Assay [5] deals with NCI-H522.
Assay [6] has as its system UACC-62.
Assay [7] deals with SK-MEL-2.
Assay [8] relates to SNB-75.
Assay [9] has as its system SF-295.
For assay [10], the system named is Malme-3M.
Assay [11] concerns A549.
The subject of assay [12] is M14.
Assay [13] concerns RPMI-8226.
The subject of assay [14] is SW-620.
Assay [15] concerns OVCAR-8.
In assay [16] the test system is LOX IMVI.
For assay [17], the system named is U-251.
Assay [18] relates to HCC 2998.
The subject of assay [19] is OVCAR-3.
Assay [20] has as its system HOP-62.

As for `CN(C)C(=S)SCC(N)=O`, the GI50 is > 100 µM (inactive) in assay [1]; > 100 µM (inactive) in assay [2]; > 100 µM (inactive) in assay [3]; 45.3 µM (inactive) in assay [4]; > 100 µM (inactive) in assay [5]; > 100 µM (inactive) in assay [6]. Further, the GI50 in assay [7] is > 100 µM (inactive); in assay [8] it was < 0.01 µM (active); in assay [9], > 100 µM (inactive); in assay [10], > 100 µM (inactive); in assay [11], > 100 µM (inactive); in assay [12], > 100 µM (inactive). The GI50 in assay [13], in assay [14], in assay [15], in assay [16], in assay [17] and in assay [18] was > 100 µM (inactive) throughout. The GI50 in assay [19] and in assay [20] was > 100 µM (inactive) in each case.

In the case of `Cc1ccc(-c2nnc3s/c(=C\c4ccc(N(C)C)cc4)c(=O)n23)cc1`, the GI50 in assay [1], in assay [2], in assay [3], in assay [4], in [5] and in assay [6] was > 100 µM (inactive) in each case. Also, the GI50 was > 100 µM (inactive) in assay [7]; 65.2 µM (inactive) in assay [8]; > 100 µM (inactive) in [9]; > 100 µM (inactive) in assay [10]; > 100 µM (inactive) in assay [11]; > 100 µM (inactive) in assay [12]. The GI50 in assay [13], in assay [14], in assay [15], in assay [16], in assay [17] and in assay [18] was > 100 µM (inactive) in each case. For the same molecule, the GI50 in assay [19] and in assay [20] was > 100 µM (inactive) throughout.

Turning to `COc1ccc(-c2cc(=O)c3c(OC)c(O)c(OC)cc3o2)cc1`, the GI50 in [1] is 32.8 µM (inactive); in [2], 50.8 µM (inactive); in assay [3] it was 26.9 µM (inactive); in assay [4], 70 µM (inactive); in [5], 17.9 µM (inactive); in assay [6], 30.8 µM (inactive). Moreover, the GI50 in assay [7] was 57.1 µM (inactive); in assay [8], 21.8 µM (inactive); in [9] it was 30.8 µM (inactive); in assay [10], 96.2 µM (inactive); in assay [11] it was 42.5 µM (inactive); in assay [12], 58.3 µM (inactive). Further, the GI50 in [13] is 27.8 µM (inactive); in [14], 54.3 µM (inactive); in assay [15], 56.6 µM (inactive); in assay [16] it was 36.9 µM (inactive); in assay [17], 63.1 µM (inactive); in assay [18], 47 µM (inactive). The GI50 in [19] was 34 µM (inactive); in assay [20], 38.1 µM (inactive).

For `O=C1C=C(Br)c2c(-c3ccccc3)oc3cccc1c23`, the GI50 in assay [1] was 37.8 µM (inactive); in assay [2] it was 25.4 µM (inactive); in assay [3], > 88.1 µM (inactive); in assay [4], > 80.9 µM (inactive); in [5], 31.6 µM (inactive); in [6], 38.1 µM (inactive). Further, the GI50 in assay [7] is 71.8 µM (inactive); in [8], 5.45 µM (inactive); in assay [9], 22.9 µM (inactive); in assay [10], 72.3 µM (inactive); in assay [11], > 81.5 µM (inactive); in assay [12], 54.5 µM (inactive). For the same molecule, the GI50 is > 39.3 µM (inactive) in assay [13]; > 100 µM (inactive) in assay [14]; 58.2 µM (inactive) in assay [15]; > 49 µM (inactive) in [16]; 18.4 µM (inactive) in assay [17]; 99.8 µM (inactive) in assay [18]. The values for the GI50 in assay [19] and in assay [20] were > 57.1 µM (inactive) and 34.4 µM (inactive), respectively.

For the origin of these results see ChEMBL document CHEMBL1201862, “PubChem BioAssay data set” (2004).
